In PMC4412257, “2′,6′-Dimethylphenylalanine: A Useful Aromatic Amino Acid Surrogate for Tyr or Phe Residue in Opioid Peptides” (International Journal of Medicinal Chemistry, 2012):
Where two headings read alike, the source gives them in different places.

Columns and labels:
δ-opioid receptor [1] = assay: δ-opioid receptor binding, brain homogenate, versus [3H]DT; parameters: species or system rat; details: ratio of Ki values
Method: The receptor-binding affinities of synthetic analogs were determined using rat brain, as previously reported [45].

μ-opioid receptor [2] = details: cited from earlier work; for Ki: versus [3H]DAMGO, read-out: Receptor binding affinity, Ki ± S.E., μ
δ-opioid receptor [3] = details: versus [3H]DT, read-out: Receptor binding affinity, Ki ± S.E., δ, cited from earlier work
[4] = system: GPI (μ): guinea pig ileum, predominantly μ-receptors; details: cited from earlier work; for MVD/GPI: ratio of IC50 values; for Ke of CTAP against the peptide, GPI: antagonist CTAP (μ), GPI assay
[5] = biological target: MVD (δ): mouse vas deferens, δ-receptors; details: cited from earlier work; for Ke of CTAP against the peptide, MVD: antagonist CTAP (μ); for Ke of CTAP against the peptide, MVD / Ke of N,N(Me)2Dmt-Tic-OH against the peptide, MVD: MVD assay; for Ke of N,N(Me)2Dmt-Tic-OH against the peptide, MVD: antagonist N,N(Me)2Dmt-Tic-OH (δ)
[6] = system: MVD (δ): mouse vas deferens, δ-receptors; assay: isolated mouse vas deferens (MVD) assay; assay type: cell-based; details: ratio of IC50 values
Method: (§1) The receptor-binding affinities of synthetic analogs were determined using rat brain, as previously reported. […] The GPI tissue contains predominantly μ-receptors, while MVD tissue contains δ-receptors. […] In contrast, 11 was devoid of activity in both assays, as expected from the binding data. […] This analog turned out to be a potent μ-antagonist and a weak δ-antagonist. […] The results of 13 are in line with observations that Dmt-D-Phe-NH2 and its C-terminally extended analog are μ-receptor antagonists.

μ-opioid receptor [7] = assay: μ-opioid receptor binding, brain homogenate, versus [3H]DAMGO; parameters: species or system rat; details: ratio of Ki values
Method: as §1
Two methyl groups on Dmp^4 may interfere with the receptor interaction due to a reduction in conformational flexibility and/or enhanced lipophilicity. To further examine the usefulness of Dmp-containing DYN peptides as κ-opioid receptor ligands, the in vitro bioactivity of DYN peptides was determined using the GPI assay (Table 5).

[8] = system: GPI (μ): guinea pig ileum, predominantly μ-receptors; assay: isolated guinea pig ileum (GPI) assay; assay type: cell-based; details: ratio of IC50 values
Method: as §1

mice = system: mice; parameters: method as in PMID 12657261; details: formalin test in mice, subcutaneous injection, cited from earlier work

Row | Substance | Ki (δ-opioid receptor [3]; Table 1, rat brain) [nM] | IC50 ([4]; Table 1) [nM] | IC50 ([5]; Table 1) [nM] | Ki (μ-opioid receptor [2]; Table 6) [nM] | Ki (δ-opioid receptor [3]; Table 6) [nM] | IC50 ([4]; Table 6) [nM] | IC50 ([5]; Table 6) [nM] | also measured
1 | [Dmt^1, D-Dmp^4]ENK [compound 13] | 40.9 ± 11.5 | > 10000 | > 10000 |  |  |  |  | μ/δ (δ-opioid receptor [1]; Table 1): 0.14; Ki (μ-opioid receptor [2]; Table 1, rat brain): 5.61 ± 0.59 nM; pA2 (μ antagonism) ([4]; against EM2 as a μ agonist in the GPI assay): 6.90; pA2 (δ antagonism) ([5]; against DT as a δ agonist in the MVD assay): 5.57
2 | [Dmp^4]ENK [compound 10] | 17.7 ± 4.2 | 808 ± 101 | 624 ± 103 |  |  |  |  | μ/δ (δ-opioid receptor [1]; Table 1): 0.07; GPI/MVD ([6]; Table 1): 1.29; Ki (μ-opioid receptor [2]; Table 1, rat brain): 1.25 ± 0.29 nM
3 | [Phe^1]DT [compound 37] |  |  |  | > 2180 | 2.68 ± 1.22 | > 10000 | 10.4 ± 1.5 | 
4 | [Dmp^1]EM2 [compound 38] |  |  |  | 2.48 ± 1.46 | 6760 ± 590 | 76.9 ± 20.7 | 661 ± 316 | δ/μ (μ-opioid receptor [7]; Table 6): 2727; MVD/GPI ([8]; Table 6): 8.61
5 | [Dmt^1]EM2 [reference compound] |  |  |  |  |  |  |  | Ki (μ-opioid receptor [2]; Table 6, footnote d): 0.15 ± 0.04 nM; IC50 ([4]; Table 6, footnote d): 0.07 ± 0.02 nM; MVD/GPI ([4]; Table 6, footnote d): 26.7; IC50 ([5]; Table 6, footnote d): 1.87 ± 0.61 nM
6 | [Dmp^1]YRFB [compound 24] |  |  |  | 0.0623 ± 0.014 | 2570 ± 947 | 9.88 ± 1.04 | 188 ± 52 | δ/μ (μ-opioid receptor [7]; Table 6): 41284; MVD/GPI ([8]; Table 6): 19; Ke of CTAP against the peptide, GPI [4]: 25.1 nM; Ke of CTAP against the peptide, MVD [5]: 13.4 nM; Ke of N,N(Me)2Dmt-Tic-OH against the peptide, MVD [5]: >1000 nM; ED50, First phase (mice; first phase): 1946 nmol/kg; ED50, Second phase (mice; second phase): 1529 nmol/kg
7 | [D-Dmp^l]DT [compound 35] |  |  |  | > 2180 | 1390 ± 495 | > 10000 | 662 ± 147 | 
8 | [D-Dmp^3]DT [compound 21] | 111 ± 17 | 8210 ± 872 | 145 ± 15 |  |  |  |  | μ/δ (δ-opioid receptor [1]; Table 1): 18; GPI/MVD ([6]; Table 1): 56; Ki (μ-opioid receptor [2]; Table 1, rat brain): 1960 ± 177 nM
9 | [D-Dmp^1]YRFB [compound 41] |  |  |  | 7.62 ± 1.75 | > 2820 | 320 ± 30 | 1470 ± 283 | δ/μ (μ-opioid receptor [7]; Table 6): >370; MVD/GPI ([8]; Table 6): 4.6
10 | [D-Dmp^3]DM [compound 19] | 3300 ± 702 | 44.4 ± 6.1 | 358 ± 45 |  |  |  |  | δ/μ (μ-opioid receptor [7]; Table 1): 745; MVD/GPI ([8]; Table 1): 8.1; Ki (μ-opioid receptor [2]; Table 1, rat brain): 4.43 ± 1.85 nM
11 | [Dmt^1]YRFB [reference compound] |  |  |  |  |  |  |  | δ/μ (μ-opioid receptor [2]; Table 6, footnote c, ratio of Ki values): 551; Ki (μ-opioid receptor [2]; Table 6, footnote c): 0.00205 ± 0.00069 nM; Ki (δ-opioid receptor [3]; Table 6, footnote c): 1.13 ± 0.13 nM; IC50 ([4]; Table 6, footnote c): 0.034 ± 0.065 nM; MVD/GPI ([4]; Table 6, footnote c): 11.7; Ke of CTAP against the peptide, GPI [4]: 85.5 nM; IC50 ([5]; Table 6, footnote c): 0.398 ± 0.085 nM; Ke of CTAP against the peptide, MVD [5]: 7.89 nM; Ke of N,N(Me)2Dmt-Tic-OH against the peptide, MVD [5]: 192 nM
12 | [Dmp^1]ENK [compound 32] |  |  |  | 5.94 ± 1.45 | 1.86 ± 0.61 | 710 ± 69 | 66.6 ± 12.7 | μ/δ (δ-opioid receptor [1]; Table 6): 3.19; GPI/MVD ([6]; Table 6): 10.66
13 | Tyr-Gly-Gly-Phe-Leu [ENK, reference compound] |  | 103 ± 30 | 22.2 ± 4.3 |  |  | 103 ± 30 | 22.2 ± 4.3 | 
14 | [D-Dmp^4]ENK [compound 11] | 8920 ± 4100 | > 10000 | > 10000 |  |  |  |  | μ/δ (δ-opioid receptor [1]; Table 1): 0.28; Ki (μ-opioid receptor [2]; Table 1, rat brain): 2500 ± 169 nM
15 | [Phe^1]YRFB [compound 42] |  |  |  | 7.17 ± 1.03 | > 2820 | 633 ± 89 | 7140 ± 950 | δ/μ (μ-opioid receptor [7]; Table 6): >393; MVD/GPI ([8]; Table 6): 11.2
16 | [Phe^1]EM2 [compound 40] |  |  |  | 54.1 ± 23.4 | 18900 | 1070 ± 309 | 5200 | δ/μ (μ-opioid receptor [7]; Table 6): 348; MVD/GPI ([8]; Table 6): 4.85
17 | [Dmp^3]DM [compound 18] | 45.7 ± 11.8 | 1.21 ± 0.23 | 4.62 ± 0.82 |  |  |  |  | δ/μ (μ-opioid receptor [7]; Table 1): 84630; MVD/GPI ([8]; Table 1): 3.8
